Columns and labels:
[1] = biological target: Histone Deacetylase 4 (HDAC4) catalytic domain (Homo sapiens (Human), UniProt P56524); assay: Biochemical HDAC inhibition assay, fluorogenic substrate Boc-Lys(Tfa)-AMC
Procedure: The potency of compounds is quantified by measuring the Histone Deacetylase 4 (HDAC4) catalytic domain enzymatic activity using the fluorogenic substrate, Boc-Lys(Tfa)-AMC. The substrate is deacetylated to Boc-Lys-AMC by HDAC4. Cleavage by trypsin results in the release of the fluorophore AMC from the deacetylated substrate. The fluorescence of the sample is directly related to the histone deacetylase activity in the sample.
Stocks of 60 μL aliquots of the 10 mM compound in DMSO are prepared and stored at −20° C. From one stock aliquot of each compound to be tested and the reference compound, a 16-point serial dilution is prepared according to Table 1 using a 125 μL 16-channel Matrix multi-channel pipette (Matrix Technologies Ltd).
2 μL (200×) of each diluted solution and each control (full activity: 100% DMSO alone or full inhibition 1 mM) is stamped into V-bottomed polypropylene 384-well compound plates using either the Bravo (384-well head from Agilent) or 12.5 μL 16-channel Matrix multi-channel pipette (Matrix Technologies Ltd). Each well with the 200× compound solution is diluted 1:20 by the addition of 38 μL assay buffer+DMSO (10.5% DMSO, 45 mM Tris-HCl, 123 mM NaCl, 2.4 mM KCl, and 0.9 mM MgCl2 at pH 8.0 and equilibrated to room temperature).
The HDAC4 catalytic domain enzyme is human catalytic domain HDAC4 protein (amino acids 648-1032) with a C-terminal 6× histidine tag, produced by BioFocus. A working solution of enzyme is prepared from a 500 μg/mL stock aliquot of HDAC4 catalytic domain (thawed on ice) diluted to 0.2 μg/mL with assay buffer (50 mM Tris-HCl, 137 mM NaCl, 2.7 mM KCl, and 1 mM MgCl2 at pH 8 and equilibrated to room temperature) just prior to the addition of the enzyme to the assay.
5× (50 μM) substrate is prepared just prior to the addition to the assay. A 1 mM substrate stock is made by diluting a 100 mM Boc-Lys(Tfa)-AMC in DMSO solution 1:100 by adding it drop-wise to assay buffer (equilibrated to room temperature) while vortexing at slow speed to prevent precipitation. The 5× substrate is prepared by diluting the 1 mM substrate solution 1:20 by adding it drop-wise to assay buffer (equilibrated to room temperature) while vortexing at slow speed to prevent precipitation.
3× (30 μM) Developer/Stop Solution is prepared just prior to addition to the plate by diluting a stock solution of 10 mM reference compound 1:333 in 25 mg/mL trypsin (PAA Laboratories Ltd.) equilibrated to room temperature.
5 μL of each solution of 1:20 diluted compound from above is transferred to a clear bottomed, black, 384-well assay plate using the Bravo or the Janus (384-well MDT head from Perkin Elmer). Using a 16-channel Matrix multi-channel pipette, 35 μL of the working solution of HDAC4 catalytic domain enzyme (0.2 μg/mL in assay buffer) is transferred to the assay plate. […] The assay plate is then shaken for two minutes on an orbital shaker at 900 rpm (rotations per minute). Next the plate is incubated for 15 minutes at 37° C. The reaction is stopped by adding 25 μL of 3× (30 μM) developer/stop solution to the assay plates using either the Bravo, Janus or a 16-channel Matrix multi-channel pipette. Assay plates are then shaken for 5 minutes on an orbital shaker at 1200 rpm. Next, the assay plates are incubated at 37° C. for 1 hour in a tissue culture incubator. Finally, the fluorescence is measured (Excitation: 355 nm, Emission: 460 nm) using PerkinElmer EnVision in top read mode.

[2] = system: cellular histone deacetylase activity (Lys-Ac); assay: Inhibition of cellular HDAC activity (Cell Lys-Ac); assay type: cell-based; details: Lys-Ac substrate
[3] = system: cellular histone deacetylase enzymatic activity in Jurkat E6-1 cells; assay: Inhibition of cellular HDAC activity, Boc-Lys(Tfa)-AMC substrate (Cell Lys-TFA); assay type: cell-based
Procedure: The potency of the compounds is quantified by measuring the cellular histone deacetylase enzymatic activity using the fluorogenic substrate, Boc-Lys(Tfa)-AMC. After penetration in Jurkat E6-1 cells, the substrate is deacetylated to Boc-Lys-AMC. After cell lysis and cleavage by trypsin, the fluorophore AMC is released from the deacetylated substrate only. The fluorescence of the sample is directly related to the histone deacetylase activity in the sample.
Jurkat E6.1 cells are cultured according to standard cell culture protocols in Jurkat E6.1 Growth Media (RPMI without phenol red, 10% FBS, 10 mM HEPES, and 1 mM Sodium Pyruvate). Jurkat E6.1 cells are counted using a Coulter Counter and resuspended in Jurkat E6.1 growth media at a concentration of 75,000 cells/35 μL. 35 μL or 75,000 cells is seeded into Greiner microtitre assay plates. The plates are then incubated at 37° C. and 5% CO2 while other assay components are being prepared.
Stocks of 70 μL aliquots of the 10 mM compound in DMSO are prepared and stored at −20° C. From one stock aliquot of each compound to be tested and the reference compound, a 16-point serial dilution is prepared according to Table 1 using a 125 μL 16-channel Matrix multi-channel pipette.
2 μL (200×) of each diluted solution and each control (full activity: 100% DMSO alone or full inhibition 1 mM) is stamped into V-bottom polypropylene 384-well compound plates using either the Bravo, Janus, or 12.5 μL 16-channel Matrix multi-channel pipette. Each well with the 200× compound solution is diluted 1:20 by the addition of 38 μL Jurkat assay buffer+DMSO (9.5% DMSO, RPMI without phenol red, 0.09% FBS, 9 mM Hepes, and 0.9 mM Sodium Pyruvate equilibrated to room temperature)
5× (500 μM) substrate is prepared just prior to the addition to the assay. The 5× substrate is prepared by diluting a 100 mM Boc-Lys(Tfa)-AMC in DMSO solution 1:200 by adding it drop-wise to Jurkat assay medium (RPMI without phenol red, 0.1% FBS, 10 mM Hepes, and 1 mM Sodium Pyruvate equilibrated to 37° C.) while vortexing at slow speed to prevent precipitation.
10 mL of 3× lysis buffer is prepared with 8.8 ml of 3× stock lysis buffer (50 mM Tris-HCl, pH 8.0, 137 mM NaCl, 2.7 mM KCl, 1 mM MgCl2, 1% Nonidet P40 Substitute equilibrated to room temperature) and 1.2 mL of 3 mg/mL Trypsin equilibrated to room temperature.
5 μL of each solution of 1:20 diluted compound from above is transferred to the Greiner microtitre assay plates with 75,000 cells/well using the Bravo. Cells are then incubated for 2 hours at 37° C. and 5% CO2. […] The cells are then incubated for 3 hours at 37° C. and 5% CO2. Next, 25 μL of 3× lysis buffer is added to each well using either the 125 μL 16 channel pipette or the Bravo. The assay plate is then incubated overnight (15-16 hours) at 37° C. and 5% CO2. The following day, the plates are shaken on an orbital shaker for 1 minute at 900 rpm. Finally the top read fluorescence (Excitation: 355 nm, Emission: 460 nm) is measured using PerkinElmer EnVision.

[4] = Homo sapiens, Jurkat E6.1, Lys-TFA substrate

Histone Deacetylase 4 (HDAC4) catalytic domain, sequence (P56524 648-1032): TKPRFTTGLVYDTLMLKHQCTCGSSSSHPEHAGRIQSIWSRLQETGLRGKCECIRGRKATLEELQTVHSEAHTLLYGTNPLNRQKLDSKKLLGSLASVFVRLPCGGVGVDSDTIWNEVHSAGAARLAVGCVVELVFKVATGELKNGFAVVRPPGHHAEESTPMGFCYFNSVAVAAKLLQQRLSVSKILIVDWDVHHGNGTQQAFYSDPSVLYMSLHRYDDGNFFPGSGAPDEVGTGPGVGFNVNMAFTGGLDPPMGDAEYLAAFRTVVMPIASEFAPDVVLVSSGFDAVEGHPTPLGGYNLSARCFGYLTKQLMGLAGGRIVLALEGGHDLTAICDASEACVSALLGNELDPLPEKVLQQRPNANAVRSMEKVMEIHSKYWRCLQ

Structure (SMILES)	IC50 [1]	IC50 [2]	IC50 [3, 4]	IC50 ([3]; Lys-TFA substrate)
Cc1c(F)cccc1[C@]1(C(=O)NO)Cc2cnc(-c3ccccc3Cl)nc2C1 [Example 48, (S)-2-(2-Chlorophenyl)-6-(3-fluoro-2-methylphenyl)-N-hydroxy-6,7-dihydro-5H-cyclopenta[d]pyrimidine-6-carboxamide]	156 nM	> 50000 nM	60 nM	
Cc1c(F)cccc1C1(C(=O)NO)CCc2cnc(C3CC3)nc2CC1 (stereo not drawn) [Example 83, 2-Cyclopropyl-7-(3-fluoro-2-methylphenyl)-N-hydroxy-6,7,8,9-tetrahydro-5H-cyclohepta[d]pyrimidine-7-carboxamide]	1300 nM	> 50000 nM	490 nM	
Cc1cc(F)ccc1-c1nc2c(s1)CC(C(=O)NO)(c1cccc(F)c1C)C2 (single isomer, unassigned) [Example 75, E2-(abs)-5-(3-Fluoro-2-methylphenyl)-2-(4-fluoro-2-methylphenyl)-N-hydroxy-5,6-dihydro-4H-cyclopenta[d]thiazole-5-carboxamide]	270 nM	> 50000 nM		51 nM
Cc1cc(-c2nc3c(s2)C[C@@](C(=O)NO)(c2cccc(F)c2C)C3)n(C)n1 [Example 70, (R)-2-(1,3-Dimethyl-1H-pyrazol-5-yl)-5-(3-fluoro-2-methylphenyl)-N-hydroxy-5,6-dihydro-4H-cyclopenta[d]thiazole-5-carboxamide]	122 nM	> 50000 nM	79 nM	
Cc1c(F)cccc1C1(C(=O)NO)CCc2c(cnn2-c2ccccc2)C1 (single isomer, unassigned) [Example 31, E1-(abs)-5-(3-Fluoro-2-methylphenyl)-N-hydroxy-1-phenyl-4,5,6,7-tetrahydro-1H-indazole-5-carboxamide]	820 nM	> 50000 nM		72 nM
Cc1c(F)cccc1[C@]1(C(=O)NO)CCc2nc(-c3ccc(F)cc3)sc21 [Example 78, (S)-6-(3-Fluoro-2-methylphenyl)-2-(4-fluorophenyl)-N-hydroxy-5,6-dihydro-4H-cyclopenta[d]thiazole-6-carboxamide]	120 nM	> 50000 nM	500 nM	
Cc1c(F)cccc1C1(C(=O)NO)CCc2nc(NS(=O)(=O)c3ccccc3)sc2C1 (stereo not drawn) [Example 41, 6-(3-Fluoro-2-methylphenyl)-N-hydroxy-2-(phenylsulfonamido)-4,5,6,7-tetrahydrobenzo[d]thiazole-6-carboxamide]	190 nM	> 50000 nM	1600 nM	
Cc1ccccc1-c1nc2c(s1)[C@](C(=O)NO)(c1cccc(F)c1C)CC2 [Example 73, (S)-6-(3-Fluoro-2-methylphenyl)-N-hydroxy-2-(o-tolyl)-5,6-dihydro-4H-cyclopenta[d]thiazole-6-carboxamide]	143 nM	> 50000 nM	630 nM	

Now those with a lower IC50 [1], led by results:

IC50 [1]	IC50 [2]	IC50 [3, 4]	IC50 ([3]; Lys-TFA substrate)	Structure (SMILES)
102 nM	> 50000 nM	250 nM		Cc1c(F)cccc1[C@]1(C(=O)NO)CCc2nc(-c3ccccc3Cl)ncc21 [Example 49, (R)-2-(2-chlorophenyl)-5-(3-fluoro-2-methylphenyl)-N-hydroxy-6,7-dihydro-5H-cyclopenta[d]pyrimidine-5-carboxamide]
95 nM	> 50000 nM	56 nM		COc1ccc(-c2nc3c(s2)C[C@@](C(=O)NO)(c2cccc(F)c2C)C3)nc1 [Example 71, (R)-5-(3-Fluoro-2-methylphenyl)-N-hydroxy-2-(5-methoxypyridin-2-yl)-5,6-dihydro-4H-cyclopenta[d]thiazole-5-carboxamide]
61 nM	> 50000 nM	72 nM		Cc1c(F)cccc1[C@]1(C(=O)NO)Cc2cnn(-c3cccc(Cl)c3)c2C1 [Example 4, (S)-1-(3-Chlorophenyl)-5-(3-fluoro-2-methylphenyl)-N-hydroxy-1,4,5,6-tetrahydrocyclopenta[c]pyrazole-5-carboxamide]
57 nM	> 50000 nM	71 nM		Cc1cnccc1-n1ncc2c1C[C@](C(=O)NO)(c1cccc(F)c1C)C2 [Example 26, (S)-5-(3-Fluoro-2-methylphenyl)-N-hydroxy-1-(3-methylpyridin-4-yl)-1,4,5,6-tetrahydrocyclopenta[c]pyrazole-5-carboxamide]
38 nM	> 50000 nM	53 nM		Cc1c(F)cccc1[C@]1(C(=O)NO)Cc2cnn(-c3cnccn3)c2C1 [Example 19, (S)-5-(3-Fluoro-2-methylphenyl)-N-hydroxy-1-(pyrazin-2-yl)-1,4,5,6-tetrahydrocyclopenta[c]pyrazole-5-carboxamide]
29 nM	> 50000 nM	39 nM		Cc1c(F)cccc1[C@]1(C(=O)NO)Cc2cnn(-c3ccc(F)cc3F)c2C1 [Example 17, (S)-1-(2,4-Difluorophenyl)-5-(3-fluoro-2-methylphenyl)-N-hydroxy-1,4,5,6-tetrahydrocyclopenta[c]pyrazole-5-carboxamide]
28 nM	> 50000 nM	64 nM		Cc1cccc(-n2ncc3c2C[C@](C(=O)NO)(c2cccc(F)c2C)C3)c1 [Example 24, (S)-5-(3-Fluoro-2-methylphenyl)-N-hydroxy-1-(m-tolyl)-1,4,5,6-tetrahydrocyclopenta[c]pyrazole-5-carboxamide]

Source: patent US10065948B2, “Histone deacetylase inhibitors and compositions and methods of use thereof” (CHDI Foundation, Inc., priority 2014, dated 2018)
